# According to PubChem BioAssay AID1963832 (Molecular Pharmacology Branch, DTP, NCI, 2024):
# Values joined by “and” are separate entries in the source; they are usually repeats but may differ in a detail not shown here. Identical values can stand only once.
# Test system: 885724-159-R-J1-PDC complex spheroid viability
# Assay: Anticancer human tumor 885724-159-R-J1-PDC patient-derived pancreatic adenocarcinoma cell line growth inhibition [POLQ]
# Conditions: for viability, T/C: stronger effect = lower value; for IC50: curve of compound
# Method: Multicellular complex tumor spheroid response to Polymerase (POL) inhibitors (novobiocin, ART-558, RP6685) in combination with a variety of drugs and investigational agents in selected tumor cell lines
# The POL inhibitors (novobiocin, ART-558, and RP6685) were evaluated both individually and in combination with standard of care and investigational anticancer small molecules within a complex spheroid model of solid tumors. . Complex spheroids include a stromal component modeled by human endothelial cells (HUVEC) and fibroblasts modeled by human mesenchymal stem cells (MSCs). The concentration ranges selected for each drug and investigational agent were based upon clinically achievable concentrations if the clinical Cmax of the agent was known.
# Compounds. The drugs and investigational agents: novobiocin (NSC847541), ART-558 (NSC835418), RP-6685 (NSC848927), peposertib (NSC802822), ceralasertib (NSC780249), elimusertib (NSC800525), camonsertib (NSC841442), AZD-1390 (NSC803789), olaparib (NSC753686), talazoparib (NSC767125), rucaparib (NSC756644), sotorasib (NSC818433), MRTX-1133 (NSC836407), SN-38 (NSC673596), topotecan (NSC609699), epotoside (NSC141540), doxorubicin (NSC123127), gemcitabine (NSC613327), 5-fluorouracil (NSC19893), paclitaxel (NSC125973), vemurafenib (NSC761431), MSA-2 (NSC828583), SN-011 (NSC837082), adavosertib (NSC754352), prexasertib (NSC758257), carboplatin (NSC241240) and oxaliplatin (NSC266046), were obtained from the National Cancer Institute (NCI) Developmental Therapeutics Program Chemical Repository (21). The FDA-approved anticancer drug set is available from the Developmental Therapeutics Program at https://dtp.cancer.gov/organization/dscb/obtaining/. […] The stock solutions were prepared in dimethyl sulfoxide (DMSO, Sigma-Aldrich, St. Louis, MO, cat. D2650), except for the platinum compounds which were prepared in saline (Quality Biological, Gaithersburg, MD, cat. 114-055-101), at 800-fold the tested concentration and stored at -70 degrees C prior to their use. All drugs and investigational agents were tested over a range starting from a high concentration at or near the clinical Cmax and decreasing in half-log increments. If the clinical Cmax for an agent had not been determined, the highest concentration tested was 10 microM, except for SN-38, which was tested at a high concentration of 1 microM.
# Cell Culture. All cells were maintained in an incubator at 37 degrees C and 5% CO2 with 95% humidity. The PDC lines were cultured according to standard operating procedures established by the NCI PDMR (https://pdmr.cancer.gov). Table 3 of the manuscript, lists the cell lines along with the number of the three cell types plated to form the mct-spheroids and media for tumor cell growth. After thawing, all PDC lines, except 997537-175-T-J1-PDC and 415267-285-R-J2-PDC, were cultured in Matrigel-coated flasks prepared with a working solution of 1X Ham's F-12 nutrient mix, without supplementation (Thermo Fisher Scientific, cat. 11765054), 100 U/mL penicillin-streptomycin (Thermo Fisher Scientific, cat. 15140122), and 2.5% Matrigel (Corning Inc., Corning, NY, cat. 354248) for the first three passages. The two PDC lines 997537-175-T-J1-PDC and 415267-285-R-J2-PDC were cultured on uncoated flasks. The 857933-349-R-J2-PDC line was cultured in 6C/Colon 1B media containing advanced DMEM/F-12 (Thermo Fisher Scientific, cat. 12634028), 10 mM HEPES (Thermo Fisher Scientific, cat. 15630080), 1X GlutaMAX supplement (Thermo Fisher Scientific, cat. 35050061), 0.1 mg/mL primocin (InvivoGen, San Diego, CA, cat. ant-pm-2), 10% defined fetal bovine serum, heat inactivated (HyClone Laboratories Inc., Logan, UT, cat. SH30070.03HI), 50% L-WRN conditioned media (ATCC, cat. CRL-3276), 1.25 mM N-Acetyl-L-cysteine (Sigma-Aldrich, cat. A9165), 10 mM nicotinamide (Sigma-Aldrich, cat. N0636), 1X B-27 supplement (Thermo Fisher Scientific, cat. 17504044), 1X N-2 supplement (Thermo Fisher Scientific, cat. […]
# 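Note: spheroids exposed to compounds for 7 days.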
SMILES,"viability, T/C (compound 0.0316 µM)","viability, T/C (compound 0.1 µM)","viability, T/C (compound 0.316 µM)","viability, T/C (compound 1 µM)","viability, T/C (compound 3.16 µM)","viability, T/C (compound 10 µM)",IC50,"viability, T/C (compound 0.00316 µM)","viability, T/C (compound 0.01 µM)","viability, T/C (compound 0.00949 µM)","viability, T/C (compound 0.03 µM)","viability, T/C (compound 0.0949 µM)","viability, T/C (compound 0.3 µM)","viability, T/C (compound 0.949 µM)","viability, T/C (compound 3 µM)","viability, T/C (compound 0.000316 µM)","viability, T/C (compound 0.001 µM)"
C#Cc1c(F)ccc2cc(O)cc(-c3ncc4c(N5CC6CCC(C5)N6)nc(OCC56CCCN5CC(F)C6)nc4c3F)c12 (stereo unspecified),106% and 94.3% and 96.4%,99.8% and 92.7% and 89.8%,85.4% and 94.8% and 91.8%,67.7% and 67.8% and 78.2%,38.5% and 45.1% and 45.6%,20.5% and 24.2% and 20.4%,2020 nM and 2370 nM and 2710 nM,–,–,–,–,–,–,–,–,–,–
C=CC(=O)N1CCN(c2nc(=O)n(-c3c(C)ccnc3C(C)C)c3nc(-c4c(O)cccc4F)c(F)cc23)C(C)C1 (stereo unspecified),101% and 99.6% and 109%,87.9% and 97.3% and 91.8%,95.6% and 105% and 106%,98.9% and 116% and 108%,105% and 94.4% and 114%,90.5% and 92.3% and 86.1%,> 10000 nM,–,–,–,–,–,–,–,–,–,–
C=CCn1c(=O)c2cnc(Nc3ccc(N4CCN(C)CC4)cc3)nc2n1-c1cccc(C(C)(C)O)n1,93.3% and 87.4% and 93.7%,85.1% and 77.1% and 79.6%,55.8% and 56.4% and 55.1%,44.7% and 48.3% and 49.7%,–,–,577 nM and 767 nM and 846 nM,96.5% and 99.3% and 105%,95.4% and 94.4% and 90.4%,–,–,–,–,–,–,–,–
CC(=O)O[C@H]1C(=O)[C@@]2(C)[C@H]([C@H](OC(=O)c3ccccc3)[C@]3(O)C[C@H](OC(=O)[C@H](O)[C@@H](NC(=O)c4ccccc4)c4ccccc4)C(C)=C1C3(C)C)[C@]1(OC(C)=O)CO[C@@H]1C[C@@H]2O,–,–,–,–,–,–,> 3000 nM,–,–,65.2% and 64.9% and 66%,56.1% and 54% and 50.9%,56.4% and 63.5% and 54.9%,63.1% and 64.1% and 57.5%,67.5% and 71.9% and 63.7%,68.5% and 70.2% and 60.7%,–,–
CC(C)n1c(=O)n(C)c2cnc3cc(F)c(-c4ccc(OCCCN5CCCCC5)nc4)cc3c21,94.5% and 97.2% and 114%,99.6% and 106% and 103%,98.5% and 110% and 99.5%,102% and 97.6% and 97.8%,93.2% and 94.7% and 105%,67% and 74.3% and 92.4%,> 10000 nM,–,–,–,–,–,–,–,–,–,–
CC1COCCN1c1cc(-c2ccnn2C)c2ccnc(-c3ccn[nH]3)c2n1 (stereo unspecified),73.3% and 80% and 94.5%,57.2% and 56.3% and 59.7%,49.6% and 42.2% and 46.3%,44.4% and 39.4% and 45.7%,43.7% and 39.8% and 43.8%,38.9% and 38.2% and 38.7%,283 nM and 167 nM and 246 nM,–,–,–,–,–,–,–,–,–,–
CC1COCCN1c1cc(C2(O)CC3CCC(C2)O3)c2cnn(-c3ccn[nH]3)c2n1 (stereo unspecified),74.4% and 70.9% and 67.4%,52.9% and 50.4% (2×),48.7% and 37.5% and 44.3%,41.8% and 37.1% and 40.4%,37.3% and 33.5% and 35.4%,28.7% and 26.5% and 27.9%,226 nM and 106 nM and 156 nM,–,–,–,–,–,–,–,–,–,–
CC1COCCN1c1cc(C2(S(C)(=N)=O)CC2)nc(-c2ccnc3[nH]ccc23)n1 (stereo unspecified),96.4% and 90.3% and 97.2%,100% and 94.7% and 97.1%,93.7% and 85.1% and 88.2%,73.4% and 67.6% and 74.4%,55% and 54.6% and 54.8%,45.8% and 44.7% and 42.3%,5730 nM and 4930 nM,–,–,–,–,–,–,–,–,–,–
CCCS(=O)(=O)Nc1ccc(F)c(C(=O)c2c[nH]c3ncc(-c4ccc(Cl)cc4)cc23)c1F,93.7% and 104% and 95.6%,117% and 108% and 115%,124% (2×) and 122%,158% and 146% and 140%,158% and 144% and 133%,90.7% and 102% and 68.9%,> 10000 nM,–,–,–,–,–,–,–,–,–,–
CC[C@@]1(O)C(=O)OCc2c1cc1n(c2=O)Cc2cc3c(CN(C)C)c(O)ccc3nc2-1,80.4% and 78.2% and 74.8%,57.3% and 62.5% and 57.7%,–,–,–,–,> 100 nM,98.8% and 97.1% and 92.2%,89.7% and 86.8% and 86.5%,–,–,–,–,–,–,97.3% and 109% and 93.8%,102% and 92% and 99%
CCc1c2c(nc3ccc(O)cc13)-c1cc3c(c(=O)n1C2)COC(=O)[C@]3(O)CC,53.4% and 55% and 47.8%,47.3% and 54.5% and 50.5%,32% and 33.2% and 35.3%,5.28% and 5.56% and 4.88%,–,–,55.4 nM and 88.2 nM and 65.5 nM,76.2% and 80.4% and 69%,56% and 61.6% and 54.3%,–,–,–,–,–,–,–,–
CCc1cc2c(N3CCc4c(cc(Cn5ccnc5)cc4-c4cn(C)nc4C(F)(F)F)C3=O)cc(C)nc2c(OC)n1,78.8% and 91% and 78.9%,81.9% and 91.9% and 92.2%,79.6% and 85.4% and 85.2%,81.4% and 83.5% and 75.8%,76.3% and 76.6% and 80.9%,72.1% and 69.1% and 62.2%,> 10000 nM,–,–,–,–,–,–,–,–,–,–
CCc1cc2c(N3CCc4c(cc(Cn5ccnc5)cc4-c4cn(C)nc4C(F)(F)F)C3=O)ccnc2c(OC)n1,93.9% and 86.6% and 89.7%,80.4% and 79.6% and 85%,87.7% and 80.6% and 84.8%,72.1% and 82.8% and 82.3%,76.9% and 72.9% and 80%,64.6% and 72.9% and 65%,> 10000 nM,–,–,–,–,–,–,–,–,–,–
